# According to patent US5563125A, “5'-deoxy-5'-(substituted)alkylthioribose compounds and their pharmaceutical compositions” (priority 1992, dated 1996):
# Key:
# [1] = system: T. b. brucei procyclic trypanosomes (Lab 110 EATRO strain); test: In vitro antitrypanosomal activity, procyclic trypanosomes in T2 medium; type: cell-based, Trypanosoma brucei brucei; conditions: Trypanosoma brucei, 3-5 days
# Protocol: The antitrypanosomal effects of HETA and other nucleosides were examined in the Lab 110 EATRO strain of T. b. brucei in culture.
# Cells were cultured as described in Bacchi et al. Exp. Parasitol. 68, 392, 1989. Cells were then grown in the presence of the compounds for 3-5 days. Drugs were filtered, sterilized and added aseptically. Control cells achieved a maximum density of 1.5-3.5×10^7 /ml. Hemocytometer counts were made daily and the results were expressed as a percent of control growth. IC50 plots were obtained by graphing log (drug) vs. percent growth inhibition.
# Trypanocidal Activity of MTA and MTR Analogs
# against T. b. brucei procyclic trypanosomes in T2 medium.
# [2] = target: T1, T. b. brucei MTA phosphorylase (Trypanosoma brucei, UniProt Q57XS4); test: T. b. brucei MTA phosphorylase substrate assay; type: biochemical; conditions: relative to MTA
# T1 construct: MTA or analogs as substrates
# T1 sequence (Q57XS4 entry or part of it): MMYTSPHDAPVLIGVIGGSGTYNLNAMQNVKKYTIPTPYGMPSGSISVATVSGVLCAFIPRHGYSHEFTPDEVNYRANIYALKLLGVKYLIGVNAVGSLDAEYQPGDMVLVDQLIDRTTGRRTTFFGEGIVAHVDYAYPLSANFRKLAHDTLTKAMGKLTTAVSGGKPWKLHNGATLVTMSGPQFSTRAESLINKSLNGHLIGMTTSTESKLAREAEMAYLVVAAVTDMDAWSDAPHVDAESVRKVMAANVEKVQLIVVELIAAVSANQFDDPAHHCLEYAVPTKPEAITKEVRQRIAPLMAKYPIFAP
# Protocol: ^a MTA phosphorylase was assayed according to Ghoda et al., using 200
# μM MTA (saturating) or analogs as substrates. Specific activities of
# the dialyzed enzyme preparations were with 50 mM PO4, 104.97 n
# moles/mg protein/h; without PO4, 28.27 n moles/mg protein/h. Results
# are expressed as percent activity compared to as substrate with and
# without PO4, respectively.
# [3] = system: L1210 cells (MTA phosphorylase-deficient); test: Growth inhibition of L1210 cells; type: cell-based, mouse; conditions: Mus musculus, L1210, 48 h
# Protocol: (§1) L1210, L5178Y and MOLT-4 cell lines were grown in RPMI 1640 and 10% Nu Serum (Collaborative Research Inc., Lexington, Mass.) and CCRF-CEM cells were grown in 10% Horse Serum (Gibco Laboratories, Grand Island, N.Y.) and maintained as previously described for suspension cultures by Pera et al. in Cancer Res. 46, 1148, 1986. Cell cultures (0.3×10^5 cells/ml) were treated with each compound at 0.1 to 1000 μM to determine the concentration that inhibited growth by 50% (IC50) at 48 hr for the L1210 and L5178Y cells and at 96 hr for the CCRF-CEM and MOLT-4 cells. The incubation times allowed approximately 4 cell doublings in each cell line. All compounds were freshly prepared prior to treatment by dissolving in DMSO and diluting in serum-free media. Cells were counted by electron particle counting (Model XF' Coulter Counter; Coulter Electronics, Hialeah, Fla.).
# (§2) For each compound, the concentrations required to inhibit cell growth by 50% (IC50 values) are shown in Table 7 for two murine leukemic cell lines, L1210 and L5178Y [MTA phosphorylase-deficient and MTA phosphorylase-containing, respectively] and two human leukemic cell lines, CCRF-CEM and MOLT-4 [MTA phosphorylase-deficient and MTA phosphorylase-containing, respectively]. ETA, MFETA, HETA and PTA had lower IC50 values in the L5178Y cells than in the L1210 cells. […] This differential is consistent with the possibility that, in L5178Y cells, MFETA is cleaved by MTA phosphorylase to the growth inhibitory metabolite, 5-monofluoroethylthioribose-1-phosphate (MFETR-1-P).
# [4] = system: CCRF-CEM cells (MTA phosphorylase-deficient); test: Growth inhibition of CCRF-CEM cells; type: cell-based, human; conditions: Homo sapiens, 96 h
# Protocol: as §1, §2
# [5] = system: MOLT-4 cells (MTA phosphorylase-containing); test: Growth inhibition of MOLT-4 cells; type: cell-based, human; conditions: Homo sapiens, MOLT-4, 96 h
# Protocol: as §1, §2
# L1210 leukemic cells = test: Antitumor effects in L1210 leukemic mice; type: in vivo, DBA/2N mice
# Protocol: The antitumor effects of MFETA were evaluated in DBA/2N mice (Charles River) who received i.p. transplants of 10^6 L1210 leukemic cells or 10^6 L5178Y leukemic cells on day 0 according to protocols described previously by Bernacki et al., Cancer Res. 47, 799, 1987. The increase in life span (% ILS) of treated animals relative to untreated, tumor-bearing animals was used as the measure of their therapeutic effectiveness at specified dose regimens.
# ^a MFETA was administered i.p. on days 1, 2, 3, 4, 5 following i.p.
# implantation of 10^6 tumor cells on day 0.
# ^b % ILS is the percentage of increase in life span.
# [6] = system: HT-29 (human colon carcinoma); test: In vitro evaluation, HT-29; type: cell-based; conditions: HT-29, medium B, 96 hours, solvent DMSO
# Protocol: (§3) In vitro evaluations of the compound 5'-deoxy-5'-(monofluoroethylthio) adenosine (MFETA) were performed using the materials and conditions described in Tables 9 and 10.
# (a) Basal medium + RPMI 1640 + 20 mM HEPES;
# B--5% NuSerum IV + 5% FCS,
# *Incubation or exposure time is determined by the doubling time of the
# cell line such that each is exposed to the compound for 3-4 cell
# Ebey (human melanoma) = test: In vitro evaluation, Ebey; type: cell-based; conditions: medium B, 72 hours
# Protocol: as §3
# (§4) ^(a) Basal medium = RPMI 1640 + 20 mM HEPES + 2 mM Lglutamine
# (§5) B = 5% FCS + 5% NuSerum IV
# LOX (human melanoma) = test: In vitro evaluation, LOX; type: cell-based; conditions: medium B, 72 hours
# Protocol: as §3, §4, §5
structure (smiles),measurement,setting,value
"Nc1ncnc2c1ncn2[C@@H]1O[C@H](CSCCF)[C@@H](O)[C@H]1O [MFETA, 5'-deoxy-5'-(monofluoroethylthio)adenosine]",IC50,[1],5 µM
same,Percent Control Activity,"[2]; +50 mM PO4, 200 μM substrate",75.3%
same,Percent Control Activity,"[2]; No PO4, 200 μM substrate",109.1%
same,IC50,[3],150 ± 50 µM
same,IC50,[4],75 ± 20 µM
same,IC50,[5],10 ± 3 µM
same,% ILS (percentage of increase in life span),"L1210 leukemic cells; L1210, 10 mg/kg i.p. days 1-5",14%
same,Mean Death Weight,"L1210 leukemic cells; L1210, 10 mg/kg i.p. days 1-5",23.7 g
same,Survival Mean ± SD,"L1210 leukemic cells; L1210, 10 mg/kg i.p. days 1-5",7.2 ± 0.5 days
same,Survival Median,"L1210 leukemic cells; L1210, 10 mg/kg i.p. days 1-5",8 days
same,Survival Range,"L1210 leukemic cells; L1210, 10 mg/kg i.p. days 1-5",6 to 8 days
same,% ILS (percentage of increase in life span),"L1210 leukemic cells; L1210, 50 mg/kg i.p. days 1-5",14%
same,Mean Death Weight,"L1210 leukemic cells; L1210, 50 mg/kg i.p. days 1-5",24.5 g
same,Survival Mean ± SD,"L1210 leukemic cells; L1210, 50 mg/kg i.p. days 1-5",7.8 ± 0.2 days
same,Survival Median,"L1210 leukemic cells; L1210, 50 mg/kg i.p. days 1-5",8 days
same,Survival Range,"L1210 leukemic cells; L1210, 50 mg/kg i.p. days 1-5",7 to 8 days
same,% ILS (percentage of increase in life span),"L1210 leukemic cells; L1210, 100 mg/kg i.p. days 1-5",14%
same,Mean Death Weight,"L1210 leukemic cells; L1210, 100 mg/kg i.p. days 1-5",22.8 g
same,Survival Mean ± SD,"L1210 leukemic cells; L1210, 100 mg/kg i.p. days 1-5",7.9 ± 0.2 days
same,Survival Median,"L1210 leukemic cells; L1210, 100 mg/kg i.p. days 1-5",8 days
same,Survival Range,"L1210 leukemic cells; L1210, 100 mg/kg i.p. days 1-5",7 to 9 days
same,% ILS (percentage of increase in life span),"L1210 leukemic cells; L1210, 200 mg/kg i.p. days 1-5",28%
same,Mean Death Weight,"L1210 leukemic cells; L1210, 200 mg/kg i.p. days 1-5",18.4 g
same,Survival Mean ± SD,"L1210 leukemic cells; L1210, 200 mg/kg i.p. days 1-5",8.8 ± 0.8 days
same,Survival Median,"L1210 leukemic cells; L1210, 200 mg/kg i.p. days 1-5",9 days
same,Survival Range,"L1210 leukemic cells; L1210, 200 mg/kg i.p. days 1-5",6 to 11 days
same,% ILS (percentage of increase in life span),"L1210 leukemic cells; L1210, 300 mg/kg i.p. days 1-5",-72%
same,Mean Death Weight,"L1210 leukemic cells; L1210, 300 mg/kg i.p. days 1-5",18.8 g
same,Survival Mean ± SD,"L1210 leukemic cells; L1210, 300 mg/kg i.p. days 1-5",2.2 ± 0.2 days
same,Survival Median,"L1210 leukemic cells; L1210, 300 mg/kg i.p. days 1-5",2 days
same,Survival Range,"L1210 leukemic cells; L1210, 300 mg/kg i.p. days 1-5",2 to 3 days
same,IC50,[6],259 µM
same,IC50,Ebey (human melanoma),442 ± 13 µM
same,IC50,LOX (human melanoma),268 ± 13 µM
